Activity calls are given as the source filed them. The calls are words filed in the database; no cut-off is given here.
Tests used:
[1] = biological target: T1, Nitric oxide synthase, inducible (Mus musculus) (UniProt P29477); assay: Inhibition of iNOS-mediated nitric oxide production in LPS-stimulated mouse RAW 264.7 cells treated 2 hrs before LPS challenge measured after 18 hrs by Griess reaction method relative to control; assay type: cell-based; parameters: concentration or dose not given beside the values; conditions: concentration not given here
T1 sequence (whole entry): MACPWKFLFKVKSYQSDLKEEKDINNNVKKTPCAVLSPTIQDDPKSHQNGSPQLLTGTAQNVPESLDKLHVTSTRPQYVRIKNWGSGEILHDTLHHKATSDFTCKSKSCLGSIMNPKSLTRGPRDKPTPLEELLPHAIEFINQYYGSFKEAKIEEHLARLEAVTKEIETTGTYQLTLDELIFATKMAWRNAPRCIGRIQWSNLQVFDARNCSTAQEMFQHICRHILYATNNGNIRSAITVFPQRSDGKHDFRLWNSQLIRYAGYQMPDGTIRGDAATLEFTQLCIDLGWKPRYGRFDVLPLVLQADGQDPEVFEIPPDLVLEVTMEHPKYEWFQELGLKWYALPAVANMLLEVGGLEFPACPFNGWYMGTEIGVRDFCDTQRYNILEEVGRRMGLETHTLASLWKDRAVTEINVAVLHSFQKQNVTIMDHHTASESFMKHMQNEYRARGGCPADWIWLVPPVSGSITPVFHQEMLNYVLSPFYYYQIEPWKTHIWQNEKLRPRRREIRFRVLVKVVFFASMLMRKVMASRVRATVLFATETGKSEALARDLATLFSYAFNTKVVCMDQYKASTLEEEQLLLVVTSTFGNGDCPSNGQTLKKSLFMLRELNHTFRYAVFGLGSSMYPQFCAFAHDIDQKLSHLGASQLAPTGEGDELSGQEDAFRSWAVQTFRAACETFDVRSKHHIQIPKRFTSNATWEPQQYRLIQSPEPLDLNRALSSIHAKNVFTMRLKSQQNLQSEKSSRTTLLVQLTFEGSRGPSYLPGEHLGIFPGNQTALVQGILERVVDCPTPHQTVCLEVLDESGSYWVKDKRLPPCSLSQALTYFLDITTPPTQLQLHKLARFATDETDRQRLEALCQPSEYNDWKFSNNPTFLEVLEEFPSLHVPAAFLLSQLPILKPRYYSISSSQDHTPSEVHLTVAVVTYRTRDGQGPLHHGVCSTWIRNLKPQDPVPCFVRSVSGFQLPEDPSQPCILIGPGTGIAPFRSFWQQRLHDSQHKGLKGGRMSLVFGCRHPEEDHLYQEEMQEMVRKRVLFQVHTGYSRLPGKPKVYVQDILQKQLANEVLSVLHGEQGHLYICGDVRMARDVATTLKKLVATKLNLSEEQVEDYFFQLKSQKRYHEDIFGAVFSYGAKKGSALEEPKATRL

RAW264.7 [2] = assay: Cytotoxicity against LPS-stimulated mouse RAW264.7 cells after 24 hrs by MTT assay; assay type: cell-based; conditions: RAW264.7, 24 h
[3] = biological target: T2, Nitric oxide synthase, inducible (Mus musculus, UniProt P29477)
T2 sequence (P29477 whole entry): T1 sequence (whole entry)
Description: Inhibition of iNOS in LPS-stimulated mouse RAW 264.7 cells after 2 hrs by fluorescence plate reader analysis

[4] = biological target: T3, Prostaglandin G/H synthase 2 (Mus musculus, UniProt Q05769); assay: Inhibition of COX2-mediated PGE2 production in LPS-stimulated mouse RAW 264.7 cells after 24 hrs by ELISA; assay type: cell-based
T3 sequence (Q05769 whole entry): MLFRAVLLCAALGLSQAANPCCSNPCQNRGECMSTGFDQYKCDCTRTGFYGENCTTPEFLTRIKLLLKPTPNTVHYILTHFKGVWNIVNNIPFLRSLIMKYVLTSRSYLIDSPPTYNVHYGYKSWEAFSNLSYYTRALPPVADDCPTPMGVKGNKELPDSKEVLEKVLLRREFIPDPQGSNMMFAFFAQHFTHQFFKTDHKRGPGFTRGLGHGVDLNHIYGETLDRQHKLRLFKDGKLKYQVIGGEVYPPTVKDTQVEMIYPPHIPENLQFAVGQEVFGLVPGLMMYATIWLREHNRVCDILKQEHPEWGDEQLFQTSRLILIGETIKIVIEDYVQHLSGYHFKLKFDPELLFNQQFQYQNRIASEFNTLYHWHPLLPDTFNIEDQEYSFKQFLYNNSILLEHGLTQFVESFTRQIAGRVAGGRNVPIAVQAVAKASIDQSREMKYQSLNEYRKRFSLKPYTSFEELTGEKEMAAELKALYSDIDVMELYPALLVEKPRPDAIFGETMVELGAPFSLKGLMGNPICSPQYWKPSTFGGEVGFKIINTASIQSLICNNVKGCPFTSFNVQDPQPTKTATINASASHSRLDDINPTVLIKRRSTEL

RAW264.7 [5] = assay: cells; conditions: Mus musculus, RAW264.7, 24 h
Description: Cytotoxicity against mouse RAW264.7 cells after 24 hrs by MTT assay

[6] = biological target: T2, Nitric oxide synthase, inducible; remark: listed apart in the source
[7] = Oral bioavailability in Sprague-Dawley rat at 50 mg/kg; assay type: ADME, organism-based; conditions: in vivo
Rattus norvegicus [8] = assay: Antiarthritic activity in heat-killed mycobacterium tuberculosis-induced Lewis rat arthritis model assessed as increase in boy weight at 50 mg/kg, po QD for 28 relative to control; assay type: functional
Rattus norvegicus [9] = assay: Antiarthritic activity in heat-killed mycobacterium tuberculosis-induced Lewis rat arthritis model assessed as leukocytes infiltreated into synovial tissue and synovial fluid of joints at 50 mg/kg, po QD for 28 using hematoxylin and eosin staining by microscopic analysis; assay type: functional, organism-based; parameters: dose 50 mg/kg
[10] = Cmax in Sprague-Dawley rat at 10 mg/kg, iv; assay type: ADME, organism-based; parameters: dose 10 mg/kg, route intravenous; conditions: in vivo
Mus musculus [11] = assay: Antiinflammatory activity in ICR mouse assessed as inhibition of carrageenan-induced paw edema at 50 mg/kg, po administered 30 mins before carrageenan challenge measured up to 5 hrs; assay type: functional
RAW264.7 [12] = assay: Inhibition of LPS-induced COX2 protein expression in mouse RAW264.7 cells at 12 to 24 uM treated 2 hrs before LPS challenge measured after 18 hrs by Western blotting; assay type: functional, cell-based
[13] = Cmax in Sprague-Dawley rat at 50 mg/kg, po; assay type: ADME, organism-based; parameters: dose 50 mg/kg, route oral; conditions: in vivo
Rattus norvegicus [14] = assay: AUC (0 to t) in Sprague-Dawley rat at 50 mg/kg, po; assay type: ADME, organism-based, Plasma; parameters: dose 50 mg/kg, route oral; conditions: in vivo
Mus musculus [15] = assay: Antiinflammatory activity against acetic acid-induced vascular permeability in ICR mouse assessed as evans blue peritoneal leakage at 10 to 50 mg/kg, ip administered 30 mins before acetic acid challenge measured after 50 mins; assay type: functional, organism-based
Rattus norvegicus [16] = assay: AUC (0 to t) in Sprague-Dawley rat at 10 mg/kg, iv; assay type: ADME, organism-based, Plasma; parameters: dose 10 mg/kg, route intravenous; conditions: in vivo
RAW264.7 [17] = assay: Inhibition of LPS-induced iNOS protein expression in mouse RAW264.7 cells treated 2 hrs before LPS challenge measured after 18 hrs by Western blotting; assay type: functional, cell-based
[18] = Tmax in Sprague-Dawley rat at 50 mg/kg, po; assay type: ADME, organism-based; parameters: dose 50 mg/kg, route oral; conditions: in vivo
[19] = Half life in Sprague-Dawley rat at 50 mg/kg, po; assay type: ADME, organism-based; parameters: dose 50 mg/kg, route oral; conditions: in vivo
Mus musculus [20] = assay: Antiinflammatory activity in ICR mouse assessed as inhibition of carrageenan-induced paw edema at 10 mg/kg, po administered 30 mins before carrageenan challenge measured up to 5 hrs; assay type: functional
[21] = Half life in Sprague-Dawley rat at 10 mg/kg, iv; assay type: ADME, organism-based; parameters: dose 10 mg/kg, route intravenous; conditions: in vivo
[22] = Tmax in Sprague-Dawley rat at 10 mg/kg, iv; assay type: ADME, organism-based; parameters: dose 10 mg/kg, route intravenous; conditions: in vivo
Mus musculus [23] = species: Mus musculus; conditions: ICR, 10 mg/kg
Description: Antiinflammatory activity against acetic acid-induced vascular permeability in ICR mouse assessed as evans blue peritoneal leakage at 10 mg/kg, ip administered 30 mins before acetic acid challenge measured after 50 mins

Rattus norvegicus [24] = assay: Antiarthritic activity in heat-killed mycobacterium tuberculosis-induced Lewis rat arthritis model assessed as decrease in arthritic score at 50 mg/kg, po QD for 28; assay type: functional, organism-based; parameters: dose 50 mg/kg

Compound: O=C(COc1ccc(/C=C2\SC(=O)NC2=O)cc1)Nc1ccc(Cl)cc1
- inhibition [1]: 9.7%

Compound: O=C(COc1ccc(/C=C2\SC(=O)NC2=O)cc1)Nc1ccccn1
- inhibition [1]: 14.6%

Compound: O=C(COc1ccc(/C=C2\SC(=O)NC2=O)cc1)Nc1ccc(C(F)(F)F)cc1
- inhibition [1]: 26.6%

Compound: COc1ccc(NC(=O)COc2ccc(/C=C3\SC(=O)NC3=O)cc2)cc1OC
- inhibition [1]: 16.2%

Compound: O=C(COc1ccc(/C=C2\SC(=O)NC2=O)cc1)Nc1ccc(F)c(Cl)c1
- inhibition [1]: 36%

Compound: CN(C(=O)COc1ccc(/C=C2\SC(=O)NC2=O)cc1)c1ccccc1
- inhibition [1]: 51%

Compound: O=C(COc1ccc(/C=C2\SC(=O)NC2=O)cc1)Nc1cccc(F)c1
- inhibition [1]: 41.5%

Compound: O=C(COc1ccc(/C=C2\SC(=O)NC2=O)cc1)NCc1ccccc1
- inhibition [1]: 41.6%

Compound: O=C(COc1ccc(/C=C2\SC(=O)NC2=O)cc1)Nc1ccc(F)c(F)c1
- inhibition [1]: 83.9%
- IC50 (RAW264.7 [2]): > 100 µM
- IC50 [3]: 34.1 µM
- IC50 [4]: 7.12 µM
- IC50 (RAW264.7 [5]): > 100 µM
- IC50 [6]: 13.9 µM

Compound: O=C(COc1ccc(/C=C2\SC(=O)NC2=O)cc1)Nc1ccc(F)cc1
- inhibition [1]: 57.9%

Compound: COc1ccc(NC(=O)COc2ccc(/C=C3\SC(=O)NC3=O)cc2)cc1
- inhibition [1]: 0.6%

Compound: O=C(COc1ccc(/C=C2\SC(=O)NC2=O)cc1)NC1CCCCC1
- inhibition [1]: 47.8%

Compound: O=C(COc1ccc(/C=C2\SC(=O)NC2=O)cc1)Nc1ccccc1
- inhibition [1]: 55.3%

Compound: O=C(COc1ccc(/C=C2\SC(=O)NC2=O)cc1)Nc1cccc(Cl)c1
- bioavailability [7]: 18.1%
- Activity (Rattus norvegicus [8]): 15.1%
- inhibition [1]: 80.9%
- Activity (Rattus norvegicus [9]): Active
- IC50 (RAW264.7 [2]): > 100 µM
- Cmax [10]: 27 µM
- IC50 [3]: 23.6 µM
- inhibition in vivo at 50 mg/kg (Mus musculus [11]): 36.2%
- inhibition (RAW264.7 [12]): Active
- Cmax [13]: 15.3 µM
- AUC (Rattus norvegicus [14]): 10 uM.hr/L
- inhibition (Mus musculus [15]): inactive
- AUC (Rattus norvegicus [16]): 11.05 uM.hr/L
- IC50 [4]: 4.16 µM
- inhibition (RAW264.7 [17]): Dose-dependent effect
- Tmax [18]: 10.8 min
- IC50 (RAW264.7 [5]): > 100 µM
- half-life [19]: 130 min
- inhibition (Mus musculus [20]): Active
- inhibition in vivo at 10 mg/kg (Mus musculus [20]): 33.3%
- half-life [21]: 16.8 min
- IC50 [6]: 8.66 µM
- Tmax [22]: 4.8 min

Compound: CC(=O)c1ccc(NC(=O)COc2ccc(/C=C3\SC(=O)NC3=O)cc2)cc1
- inhibition [1]: 10.2%

Compound: Cc1ccc(NC(=O)COc2ccc(/C=C3\SC(=O)NC3=O)cc2)nc1
- inhibition [1]: 12.5%

Compound: O=C(COc1ccc(/C=C2\SC(=O)NC2=O)cc1)Nc1cccc2ccccc12
- inhibition [1]: 70.9%
- IC50 (RAW264.7 [2]): 55 µM
- IC50 [3]: 40 µM
- IC50 [4]: 16.1 µM
- IC50 (RAW264.7 [5]): 62.3 µM
- IC50 [6]: 20.9 µM

Compound: O=C(COc1ccc(/C=C2\SC(=O)NC2=O)cc1)Nc1ccc(Br)cc1
- inhibition [1]: 23.7%

Compound: O=C(COc1ccc(/C=C2\SC(=O)NC2=O)cc1)Nc1ccc2ccccc2c1
- inhibition [1]: 45.1%

Compound: O=C(COc1ccc(/C=C2\SC(=O)NC2=O)cc1)Nc1cc(Cl)cc(Cl)c1
- inhibition [1]: 72%
- IC50 (RAW264.7 [2]): > 100 µM
- IC50 [3]: 57.4 µM
- IC50 [4]: 14.8 µM
- IC50 (RAW264.7 [5]): > 100 µM
- IC50 [6]: 26.1 µM

Compound: Cc1ccc(NC(=O)COc2ccc(/C=C3\SC(=O)NC3=O)cc2)cc1
- inhibition [1]: 38.4%

Compound: O=C(COc1ccc(/C=C2\SC(=O)NC2=O)cc1)Nc1ccc(Cl)cc1Cl
- inhibition [1]: 10%

Compound: COc1ccc2c(c1)c(CC(=O)O)c(C)n2C(=O)c1ccc(Cl)cc1 [INDOMETHACIN]
- inhibition [1]: 63.2%
- inhibition (Mus musculus [23]): Active
- IC50 (RAW264.7 [2]): > 100 µM
- Activity (Rattus norvegicus [24]): Active
- IC50 (RAW264.7 [5]): > 100 µM

Reference: ChEMBL document CHEMBL1765006, “Synthesis and biological evaluation of novel 5-benzylidenethiazolidine-2,4-dione derivatives for the treatment of inflammatory diseases” (J Med Chem, 2011)
